The values below come from patent US20080113924A1, “Neuramindase Inhibitor” (priority 2004, published 2008).

This experiment concerns the target T1, Neuraminidase (Derived from Vibrio cholerae) (Vibrio cholerae serotype O1, UniProt P0C6E9).
T1 construct: host or cells: Vibrio cholerae (printed as 'Vibro-Choralie')
In words: Inhibition activity against neuraminidase (pre-incubation, p-nitrophenyl-α-N-acetyl neuraminic acid hydrolysis, absorbance 405 nm). Format: biochemical. The settings on record: irreversible inhibitor; pre-incubation 0, 10 or 30 min with 0-0.5 mM, pH 5.0; calculated from inhibition curve (FIG. 3); read-out: inhibition constant (Ki). The protocol:
Neuraminidase (50 μg) produced by Vibro-Choralie was pre-incubated in 50 mM phosphoric acid-tartaric acid buffer (pH 5.0, 10 μ1) together with the compound 6 (0, 0.05, 0.1, 0.2, and 0.5 mM), after 0, 10 or 30 minutes, 2 μl of the reaction solution was fractionated, respectively. The fractionated and pre-incubated solution was immediately incubated for 5 minutes in 50 mM phosphoric acid-tartaric acid buffer (pH 5.0, 50 μl) using 5 mM p-nitrophenyl-α-N-acetyl neuraminic acid. Then, glycine buffer (pH 11.0, […]) was added to each fractionated solution to stop the reaction. The amount of p-nitrophenol produced by hydrolysis reaction of neuraminidase was calculated by absorbance determination at 405 nm.

T1 sequence (P0C6E9 25-781): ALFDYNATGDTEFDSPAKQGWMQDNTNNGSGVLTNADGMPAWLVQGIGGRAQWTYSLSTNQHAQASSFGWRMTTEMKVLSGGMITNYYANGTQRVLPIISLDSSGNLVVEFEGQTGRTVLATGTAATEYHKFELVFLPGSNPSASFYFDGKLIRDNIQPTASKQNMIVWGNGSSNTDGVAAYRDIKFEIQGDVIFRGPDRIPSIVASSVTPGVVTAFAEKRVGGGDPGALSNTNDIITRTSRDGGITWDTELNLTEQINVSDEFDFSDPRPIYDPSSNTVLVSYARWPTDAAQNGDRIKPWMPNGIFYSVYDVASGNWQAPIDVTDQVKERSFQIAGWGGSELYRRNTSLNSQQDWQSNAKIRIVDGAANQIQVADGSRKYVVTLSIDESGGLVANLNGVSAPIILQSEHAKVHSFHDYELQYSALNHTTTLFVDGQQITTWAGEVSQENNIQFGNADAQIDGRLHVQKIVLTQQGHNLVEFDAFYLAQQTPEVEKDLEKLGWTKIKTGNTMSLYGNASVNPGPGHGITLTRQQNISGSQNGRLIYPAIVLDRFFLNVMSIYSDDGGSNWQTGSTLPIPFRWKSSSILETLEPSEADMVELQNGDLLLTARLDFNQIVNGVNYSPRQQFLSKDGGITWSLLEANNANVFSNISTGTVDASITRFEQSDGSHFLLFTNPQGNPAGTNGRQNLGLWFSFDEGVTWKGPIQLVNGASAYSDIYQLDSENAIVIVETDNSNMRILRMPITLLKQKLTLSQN

In the case of `CC(=O)NC1C(O)CC(Oc2ccc(NS(=O)(=O)c3cccc4c(N(C)C)cccc34)cc2C(F)F)(C(=O)O)OC1C(O)C(O)CO` (stereo not shown) [compound 6], the Ki was 1900 µM.
